Read-outs that look alike come from different tables or passages of the source.
Legend:
Vero E6-GFP cells = test: in vitro; assay type: cell-based, African green monkey; settings: read-out: Vero E6-GFP CC50; cell viability, 2 μM CP100356
SARS-CoV-2 nsp13 [1] = target: T1, SARS-CoV-2 nsp13 (Severe acute respiratory syndrome coronavirus 2, UniProt P0DTD1); test: biochemical
SARS-CoV-2 nsp13 [2] = target: T1, SARS-CoV-2 nsp13; settings: for impact of DTT on inhibition of unwinding activity: presence or absence of 1 mM DTT
SARS-CoV-2 nsp13 [3] = target: T1, SARS-CoV-2 nsp13; test: biochemical; assay type: biochemical; settings: for ATPase, percentage of control at the highest tested compound concentration: without BSA/TCEP
in vitro = assay type: cell-based, African green monkey; settings: African green monkey, with CP100356, 2 μM
SARS-CoV-2 = test: microbe, parasite or virus in culture; assay type: cell-based; settings: for EC50: Severe acute respiratory syndrome coronavirus 2, Vero, read-out: SARS-CoV-2 EC50
SARS-CoV-2 nsp13 [4] = target: T1, SARS-CoV-2 nsp13; settings: read-out: NTPase activity IC50; cited from earlier work
[5] = unwinding IC50, without BSA/TCEP
[6] = ATPase IC50, without BSA/TCEP, no nucleic acid
[7] = unwinding BSA-TCEP IC50, 10 μg/mL BSA and 180 μM TCEP
[8] = ATPase BSA-TCEP-polyrA IC50, BSA, TCEP and poly(A) ssRNA

Row | Compound | IC50 (SARS-CoV-2 nsp13 [1]; [5]) [µM] | unwinding, percentage of control at the highest tested compound concentration (SARS-CoV-2 nsp13 [2]; without BSA/TCEP) [%] | IC50 (SARS-CoV-2 nsp13 [3]; [6]) [µM] | ATPase, percentage of control at the highest tested compound concentration (SARS-CoV-2 nsp13 [3]) [%] | CC50 at 72 h (in vitro) [µM] | viability at 72 h (in vitro) [%] | EC50 (SARS-CoV-2) [µM] | SARS-CoV-2, percentage of control at the highest tested compound concentration (SARS-CoV-2) | further results
1 | CC(C)C[C@H](NC(=O)OCc1ccccc1)C(=O)N[C@@H](CC1CCNC1=O)C(O)S(=O)(=O)O (stereo partly shown) [GC376, reference compound] | – | – | – | – | – | – | – | – | CC50 (Vero E6-GFP cells): > 100 µM
2 | O=c1cc(-c2ccc(O)cc2)oc2cc(O[C@@H]3O[C@H](CO)[C@@H](O)[C@H](O)[C@H]3O)cc(O)c12 [apigenin-7-O-glucoside] | > 30 | 100 | > 30 | 99 | – | – | – | – | –
3 | O=c1cc(-c2ccccc2)oc2cc(O)c(O)c(O)c12 [baicalein] | – | – | – | 94 | > 100 | 100 | > 100 | >100 (100%) | –
4 | COc1ccc2cc1Oc1ccc(cc1)C[C@H]1c3c(cc4c(c3Oc3cc5c(cc3OC)CCN(C)[C@@H]5C2)OCO4)CCN1C [cepharanthine] | – | – | – | – | – | – | – | – | IC50 (SARS-CoV-2 nsp13 [4]): 400 µM
5 | O=C1c2c(O)cc(O)cc2O[C@H](c2cc(O)c(O)c(O)c2)[C@H]1O [dihydro-myricetin] | – | – | – | 100 | – | – | – | – | –
6 | COc1ccc(-c2cc(=O)c3c(O)cc(O)cc3o2)cc1O [diosmetin] | – | – | – | 92 | – | – | > 100 | >100 (100%) | –
7 | O=C(O)c1cc(O)c(O)c(O)c1 [gallic acid] | > 30 | 89 | > 30 | 92 | – | – | – | – | –
8 | O=c1c(O)c(-c2ccc(O)cc2)oc2cc(O)cc(O)c12 [kaempferol] | – | – | > 30 | 83 | > 100 | 100 | > 100 | >100 (100%) | IC50 (SARS-CoV-2 nsp13 [1]; [7]): 19 ± 2.1 µM; impact of DTT on inhibition of unwinding activity (SARS-CoV-2 nsp13 [2]): equally active in the presence and absence of DTT; mode of inhibition of unwinding activity (SARS-CoV-2 nsp13 [2]; versus ATP): noncompetitively versus ATP; unwinding IC50 range in words (SARS-CoV-2 nsp13 [2]; without BSA/TCEP): nanomolar range; IC50 (SARS-CoV-2 nsp13 [3]; [8]): > 30 µM
9 | O=c1c(O)c(-c2cc(O)c(O)c(O)c2)oc2cc(O)cc(O)c12 [myricetin] | – | – | – | 87 | > 100 | 100 | > 100 | >100 (100%) | impact of DTT on inhibition of unwinding activity (SARS-CoV-2 nsp13 [2]): equally active in the presence and absence of DTT
10 | COc1cc(O)c2c(=O)c(-c3ccc(O)cc3)coc2c1 [prunetin] | 11.5 ± 1.7 | – | > 30 | 97 | > 100 | 100 | > 100 | >100 (100%) | IC50 (SARS-CoV-2 nsp13 [1]; [7]): > 100 µM; IC50 (SARS-CoV-2 nsp13 [3]; [8]): > 30 µM
11 | O=c1c(O)c(-c2ccc(O)c(O)c2)oc2cc(O)cc(O)c12 [quercetin] | – | – | – | – | > 100 | 100 | > 100 | – | –
12 | Oc1ccc(/C=C/c2cc(O)cc(O)c2)cc1 [resveratrol] | > 30 | 64 | > 30 | 98 | – | – | – | – | –
13 | C[C@@H]1O[C@@H](OC[C@H]2O[C@@H](Oc3c(-c4ccc(O)c(O)c4)oc4cc(O)cc(O)c4c3=O)[C@H](O)[C@@H](O)[C@@H]2O)[C@H](O)[C@H](O)[C@H]1O [rutin] | – | 75 | – | 96 | – | – | – | – | –
14 | COc1c(O)cc(O)c2c(=O)cc(-c3ccccc3)oc12 [wogonin] | 24.9 ± 5.5 | – | > 30 | 95 | – | – | – | – | IC50 (SARS-CoV-2 nsp13 [1]; [7]): 74.9 ± 8.3 µM; IC50 (SARS-CoV-2 nsp13 [3]; [8]): > 30 µM
15 | kaempferol-3-O-rutinoside | – | 71 | – | 95 | – | – | – | – | –

Source: publication PMC9003574 (ACS Pharmacology & Translational Science, 2022)
